In patent US20070167452A1, “Therapeutic amide derivatives” (PFIZER, INC., priority 2004, published 2007) one finds melting point, IC50 and Ki data, which are given here for 23 compounds.

One series concerns the target Human HERG (Homo sapiens, UniProt Q12809). The series can be described thus: Human Dofetilide Binding Assay.
A further series has as its target T1, NR2B receptor (Rattus norvegicus, UniProt P35439+Q00960).
T1 construct: Membranes were prepared by homogenization of forebrain of male CD rats; from tissue; host or cells: forebrain of male CD rats (P2 membrane)
As to the kind of experiment: NR2B Binding Assay. The conditions noted are these: for IC50: forebrain P2 membranes of male CD rats, 5 nM [3H] NR2B ligand. Here is the method: The activity of the cycloalkylene amide compounds of the present invention, as NR2B antagonists, is determined by their ability to inhibit the binding of NR2B subunit at its receptor sites employing radioactive ligands.
The NR^2B antagonist activity of the cycloalkylene amide compounds is evaluated by using the standard assay procedure described in, for example, J. Pharmacol., 331, pp 117-126, 1997. This method essentially involves determining the concentration of the individual compound required to reduce the amount of radiolabelled NR2B ligands by 50% at their receptor sites, thereby affording characteristic IC50 values for each compound tested. More specifically, the assay is carried out as follows.
Membranes were prepared by homogenization of forebrain of male CD rats weighing between 170˜190 g by using glass-Teflon homogenizer in 0.32 M sucrose at 4° C. The crude nuclear pellet was removed by centrifugation at 1000×g for 10 min, and the supernatant centrifuged at 17000×g for 25 min. The resulting pellet was resuspended in 5 mM Tris acetate pH 7.4 at 4° C. for 10 min to lyse cellular particles and again centrifuged at 17000×g. The resulting pellet (P2 membrane) was washed twice in Tris acetate, resuspended at 5.5 mg protein/ml and stored at −20° C. until use. All the manipulation was done on ice, and stock solution and equipment were kept on ice at all time.
For the saturation assay, receptor saturation was determined by incubating [^3H]-1-[(1S*,2S*)-2-hydroxy-2-(4-hydroxyphenyl)-1-methylethyl]-4-phenylpiperidin-4-ol and 50 μg protein of P2 membrane for 60 minutes at room temperature in a final 100 μl of incubation buffer (50 mM Tris HCl, pH7.4). Total and non-specific bindings (in the presence of 10 μM of unlabeled 1-[(1S*,2S*)-2-hydroxy-2-(4-hydroxyphenyl)-1-methylethyl]-4-phenylpiperidin-4-ol) were determined in a range of [^3H]-1-[(1S*,2S*)-2-hydroxy-2-(4-hydroxyphenyl)-1-methylethyl]-4-phenylpiperidin-4-ol concentrations (0.625 nM to 60 nM).
For the competition assay, test compounds were incubated in duplicate with 5 nM [^3H]-1-[(1S*,2S*)-2-hydroxy-2-(4-hydroxyphenyl)-1-methylethyl]-4-phenylpiperidin-4-ol and 50 μg protein of P2 membrane for 60 minutes at room temperature in a final 100 μl of 50 mM Tris HCl buffer (pH7.4). Nonspecific binding was determined by 10 μM of unlabeled 1-[(1S*,2S*)-2-hydroxy-2-(4-hydroxyphenyl)-1-methylethyl]-4-phenylpiperidin-4-ol (25 μl). The saturation derived KD gained in saturation assay was used for all Ki calculations.
All incubations were terminated by rapid vacuum filtration over 0.2% polyethyleneimine soaked Whatman GF/B glass fibre filter paper using a SKATRON cell harvester followed by three washes with ice-cold filtration buffer (5 mM Tris HCl, pH 7.4.). Receptor-bound radioactivity was quantified by liquid scintillation counting using Packard LS counter. Competition assays were performed by counting Wallac GF/B filters on Betaplate scintillation counter (Wallac).

T1 sequence (Q00960 27-1482, other chains not shown): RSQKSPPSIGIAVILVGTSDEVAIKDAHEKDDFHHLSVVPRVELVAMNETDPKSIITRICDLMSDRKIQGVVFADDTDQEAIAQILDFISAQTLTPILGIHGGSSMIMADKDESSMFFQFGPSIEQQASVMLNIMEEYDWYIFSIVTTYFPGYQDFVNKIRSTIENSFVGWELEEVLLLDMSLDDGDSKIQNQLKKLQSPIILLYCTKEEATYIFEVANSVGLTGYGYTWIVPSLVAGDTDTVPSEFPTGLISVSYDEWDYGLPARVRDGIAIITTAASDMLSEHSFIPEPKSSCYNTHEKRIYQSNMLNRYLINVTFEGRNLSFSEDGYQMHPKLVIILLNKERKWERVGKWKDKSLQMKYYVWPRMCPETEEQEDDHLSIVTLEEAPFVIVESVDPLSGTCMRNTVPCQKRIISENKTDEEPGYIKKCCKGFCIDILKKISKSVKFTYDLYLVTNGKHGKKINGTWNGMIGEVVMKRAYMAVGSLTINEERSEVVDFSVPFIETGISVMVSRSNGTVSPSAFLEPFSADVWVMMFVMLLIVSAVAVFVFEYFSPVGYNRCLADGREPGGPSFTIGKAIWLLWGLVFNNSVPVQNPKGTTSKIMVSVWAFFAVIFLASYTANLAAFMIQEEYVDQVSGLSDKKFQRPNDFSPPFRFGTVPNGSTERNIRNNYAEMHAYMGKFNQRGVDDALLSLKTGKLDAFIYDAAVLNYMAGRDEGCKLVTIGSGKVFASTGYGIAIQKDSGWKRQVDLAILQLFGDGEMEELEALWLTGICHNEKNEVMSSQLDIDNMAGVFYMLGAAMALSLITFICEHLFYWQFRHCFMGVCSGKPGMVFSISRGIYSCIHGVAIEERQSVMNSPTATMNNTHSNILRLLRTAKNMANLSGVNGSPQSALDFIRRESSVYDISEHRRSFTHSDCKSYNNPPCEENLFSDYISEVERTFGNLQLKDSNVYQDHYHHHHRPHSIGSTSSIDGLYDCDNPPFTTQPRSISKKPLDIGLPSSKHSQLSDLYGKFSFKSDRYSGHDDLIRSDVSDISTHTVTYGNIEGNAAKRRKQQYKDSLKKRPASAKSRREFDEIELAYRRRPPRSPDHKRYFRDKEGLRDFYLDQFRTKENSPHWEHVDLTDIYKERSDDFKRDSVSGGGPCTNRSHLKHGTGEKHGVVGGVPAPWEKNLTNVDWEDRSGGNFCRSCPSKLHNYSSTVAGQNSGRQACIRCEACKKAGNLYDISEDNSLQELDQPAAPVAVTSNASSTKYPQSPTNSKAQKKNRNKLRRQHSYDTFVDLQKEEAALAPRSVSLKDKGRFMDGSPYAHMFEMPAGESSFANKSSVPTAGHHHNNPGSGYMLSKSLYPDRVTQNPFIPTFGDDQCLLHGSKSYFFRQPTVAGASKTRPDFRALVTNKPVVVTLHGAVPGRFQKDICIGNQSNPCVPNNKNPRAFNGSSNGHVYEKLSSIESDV
Human HERG, sequence (Q12809 whole entry): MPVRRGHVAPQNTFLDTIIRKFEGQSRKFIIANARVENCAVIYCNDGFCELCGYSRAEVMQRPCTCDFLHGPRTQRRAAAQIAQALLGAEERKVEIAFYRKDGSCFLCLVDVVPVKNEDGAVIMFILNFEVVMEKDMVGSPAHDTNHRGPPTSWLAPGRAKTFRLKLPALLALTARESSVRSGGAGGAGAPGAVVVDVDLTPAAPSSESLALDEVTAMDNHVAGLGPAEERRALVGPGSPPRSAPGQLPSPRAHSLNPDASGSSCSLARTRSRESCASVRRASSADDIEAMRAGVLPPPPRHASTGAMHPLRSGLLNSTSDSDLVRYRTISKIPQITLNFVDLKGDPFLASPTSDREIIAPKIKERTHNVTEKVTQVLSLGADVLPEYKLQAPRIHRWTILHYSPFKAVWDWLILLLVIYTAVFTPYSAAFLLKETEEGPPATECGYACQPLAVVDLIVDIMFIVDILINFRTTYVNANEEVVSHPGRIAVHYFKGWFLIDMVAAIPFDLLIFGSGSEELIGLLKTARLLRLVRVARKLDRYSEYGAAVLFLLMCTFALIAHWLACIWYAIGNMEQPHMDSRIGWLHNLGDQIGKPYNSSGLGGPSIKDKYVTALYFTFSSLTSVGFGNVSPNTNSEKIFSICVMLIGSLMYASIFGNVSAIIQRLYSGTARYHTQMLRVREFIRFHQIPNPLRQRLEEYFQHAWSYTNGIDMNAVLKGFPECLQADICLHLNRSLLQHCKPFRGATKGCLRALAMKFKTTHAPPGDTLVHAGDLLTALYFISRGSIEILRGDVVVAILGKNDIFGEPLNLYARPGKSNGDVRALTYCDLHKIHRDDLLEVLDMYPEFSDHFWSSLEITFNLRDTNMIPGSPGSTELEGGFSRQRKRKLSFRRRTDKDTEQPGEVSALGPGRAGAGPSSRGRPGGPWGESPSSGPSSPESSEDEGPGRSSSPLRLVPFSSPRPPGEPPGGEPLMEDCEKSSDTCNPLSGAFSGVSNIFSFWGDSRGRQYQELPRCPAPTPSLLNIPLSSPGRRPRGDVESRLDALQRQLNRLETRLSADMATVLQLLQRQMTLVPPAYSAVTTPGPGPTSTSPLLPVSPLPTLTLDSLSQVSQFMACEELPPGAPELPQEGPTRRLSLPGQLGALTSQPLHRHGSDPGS
Procedure for Human HERG: Human HERG transfected HEK293S cells were prepared and grown in-house. The collected cells were suspended in 50 mM Tris-HCl (pH 7.4 at 4° C.) and homogenized using a hand held Polytron PT 1200 disruptor set at full power for 20 sec on ice. The homogenates were centrifuged at 48,000×g at 4° C. for 20 min. The pellets were then resuspended, homogenized, and centrifuged once more in the same manner. The final pellets were resuspended in an appropriate volume of 50 mM Tris-HCl, 10 mM KCl, 1 mM MgCl2 (pH 7.4 at 4° C.), homogenized, aliquoted and stored at −80° C. until use. An aliquot of membrane fractions was used for protein concentration determination using BCA protein assay kit (PIERCE) and ARVOsx plate reader (Wallac).
Binding assays were conducted in a total volume of 200 μl in 96-well plates. Twenty μl of test compounds were incubated with 20 μl of [^3H]-dofetilide (Amersham, final 5 nM) and 160 μl of membrane homogenate (25 μg protein) for 60 minutes at room temperature. Nonspecific binding was determined by 10 μM dofetilide at the final concentration. Incubation was terminated by rapid vacuum filtration over 0.5% presoaked GF/B Betaplate filter using Skatron cell harvester with 50 mM Tris-HCl, 10 mM KCl, 1 mM MgCl2, pH 7.4 at 4° C. The filters were dried, put into sample bags and filled with Betaplate Scint. Radioactivity bound to filter was counted with Wallac Betaplate counter.

On to `O=C(NC[C@]1(O)CC[C@H](COc2ccc(F)cc2)CC1)c1ccc(O)cc1` [Example 9, N-({trans-4-[(4-Fluorophenoxy)methyl]-1-hydroxcyclohexyl}methyl)-4-hydroxybenzamide], for which the melting point (as a rule, the temperature of the solid-liquid transition) was determined as 176.4 °C. The IC50 – broadly, the concentration at which inhibition is half-maximal – at Human HERG turned out to be 26300 nM. The compound also displayed an IC50 on NR2B receptor of 7.5 nM.
The matching figures for `O=C(NC[C@]1(O)CC[C@H](COc2cccc(F)c2)CC1)c1ccc(O)cc1` [Example 10, N-({trans-4-[(3-Fluorophenoxy)methyl]-1-hydroxycyclohexyl}methyl)-4-hydroxybenzamide]: 186 °C, 25800 nM and 12 nM.
The compound `O=C(NC[C@]1(O)CC[C@H](COc2ccccc2F)CC1)c1ccc(O)cc1` [Example 11, N-({trans-4-[(2-Fluorophenoxy)methyl]-1-hydroxycyclohexyl}methyl)-4-hydroxybenzamide] yielded a melting point of 185 °C. Besides, the IC50 on Human HERG is greater than 100000 nM. Further, the Ki (commonly a dissociation constant, usually derived from enzyme kinetics or from competition with a known ligand) on NR2B receptor (competition assay, rat forebrain P2 membranes, read-out: Ki value, binding affinity for the NR2B receptor) stood at 6.2 nM. The compound further gave a half-maximal inhibitory concentration (IC50) at NR2B receptor of 8.5 nM.
Turning to `O=C(NC[C@]1(O)CC[C@H](COc2cc(F)cc(F)c2)CC1)c1ccc(O)cc1` [Example 13, N-({trans-4-[(3,5-Difluorophenoxy)methyl]-1-hydroxycyclohexyl}methyl)-4-hydroxybenzamide], the melting point was 102.4 °C. Besides, the IC50 on Human HERG stood at 62600 nM. At NR2B receptor, this compound came in with an IC50 of 30 nM.
Turning to `O=C(NC[C@]1(O)CC[C@H](COc2cccc(Cl)c2)CC1)c1ccc(O)cc1` [Example 15, N-({trans-4-[(3-Chlorophenoxy)methyl]-1-hydroxycyclohexyl}methyl)-4-hydroxybenzamide], the melting point was determined as 164.9 °C. At Human HERG, this compound came in with an IC50 of 20700 nM. At NR2B receptor, this compound had an IC50 of 21 nM.
Taken in the same sequence, the figures for `O=C(NC[C@]1(O)CC[C@H](COc2ccc(Cl)cc2)CC1)c1ccc(O)cc1` [Example 16, N-({trans-4-[(4-Chlorophenoxy)methyl]-1-hydroxycyclohexyl}methyl)-4-hydroxybenzamide] were 208.2 °C, greater than 100000 nM and 19.8 nM.
The matching figures for `Cc1ccccc1OC[C@H]1CC[C@@](O)(CNC(=O)c2ccc(O)cc2)CC1` [Example 17, 4-Hydroxy-N-({trans-1-hydroxy-4-[(2-methylphenoxy)methyl]cyclohexyl}methyl)benzamide]: 189.1 °C, greater than 100000 nM and 23.4 nM.
The matching figures for `Cc1cccc(OC[C@H]2CC[C@@](O)(CNC(=O)c3ccc(O)cc3)CC2)c1` [Example 18, 4-Hydroxy-N-({trans-1-hydroxy-4-[(3-methylphenoxy)methyl]cyclohexyl}methyl)benzamide]: 201.4 °C, greater than 100000 nM and 15.2 nM.
`Cc1ccc(OC[C@H]2CC[C@@](O)(CNC(=O)c3ccc(O)cc3)CC2)cc1` [Example 19, 4-Hydroxy-N-({trans-1-hydroxy-4-[(4-methylphenoxy)methyl]cyclohexyl}methyl)benzamide] returned a melting point of 203.1 °C. Besides, the IC50 at Human HERG is greater than 100000 nM. Also, at NR2B receptor, the IC50 is 7.7 nM.
The matching figures for `O=C(NC[C@]1(O)CC[C@H](COCc2ccccc2)CC1)c1ccc(O)cc1` [Example 21, N-({trans-4-[(Benzyloxy)methyl]-1-hydroxycyclohexyl}methyl)-4-hydroxybenzamide]: 165.7 °C, greater than 100000 nM and 11.4 nM.
Taken in the same sequence, the figures for `O=C(NC[C@]1(O)CC[C@H](COCc2ccccc2F)CC1)c1ccc(O)cc1` [Example 22, N-[(trans-4-{[(2-Fluorobenzyl)oxy]methyl}-1-hydroxycyclohexyl)methyl]-4-hydroxybenzamide] were 174.3 °C, greater than 100000 nM and 11 nM.
The matching figures for `O=C(NC[C@]1(O)CC[C@H](COCc2cccc(F)c2)CC1)c1ccc(O)cc1` [Example 23, N-[(trans-4-{[(3-Fluorobenzyl)oxy]methyl}-1-hydroxycyclohexyl)methyl]-4-hydroxybenzamide]: 167.6 °C, greater than 100000 nM and 28.6 nM.
Turning to `O=C(NC[C@]1(O)CC[C@H](COCc2ccc(F)cc2)CC1)c1ccc(O)cc1` [Example 24, N-[(trans-4-{[(4-Fluorobenzyl)oxy]methyl}-1-hydroxycyclohexyl)methyl]-4-hydroxybenzamide], the melting point was determined as 167.6 °C. Moreover, the IC50 at Human HERG was determined as 97000 nM. Moreover, at NR2B receptor, the IC50 turned out to be 21.8 nM.
`O=C(NC[C@]1(O)CC[C@@H](Oc2ccc(Cl)cc2)CC1)c1ccc(O)c(F)c1` [Example 34, N-{[cis-4-(4-Chlorophenoxy)-1-hydroxycyclohexyl]methyl}-3-fluoro-4-hydroxybenzamide]: the melting point came out at 168.1 °C. For the same compound, the IC50 on Human HERG was greater than 30000 nM. On NR2B receptor, this compound came in with an IC50 of 14.7 nM.
On to `O=C(NC[C@H]1CC[C@@H](COc2cccc(F)c2)CC1)c1cn[nH]c1` [Example 106, N-({cis-4-[(3-Fluorophenoxy)methyl]cyclohexyl}methyl)-1H-pyrazole-4-carboxamide], for which the IC50 on Human HERG came out at 29100 nM; on NR2B receptor, 16 nM.
In the case of `O=C(NC[C@H]1CC[C@@H](COc2ccccc2)CC1)c1cc(F)c(O)c(F)c1` [Example 108, 3,5-Difluoro-4-hydroxy-N-{[cis-4-(phenoxymethyl)cyclohexyl]methyl}benzamide], the IC50 on Human HERG was greater than 100000 nM; at NR2B receptor, 17.8 nM.
As to `O=C(NC[C@H]1CC[C@@H](CCOc2ccc(F)cc2)CO1)c1cn[nH]c1` [Example 113, N-({(2R,5S)-5-[2-(4-Fluorophenoxy)ethyl]tetrahydro-2H-pyran-2-yl}methyl)-1H-pyrazole-4-carboxamide], the IC50 is greater than 100000 nM at Human HERG and 6.5 nM at NR2B receptor.
For the compound `O=C(NC[C@@H]1CC[C@H](CCOc2ccc(F)cc2)CO1)c1cn[nH]c1` [Example 114, N-({(2S,5R)-5-[2-(4-fluorophenoxy)ethyl]tetrahydro-2H-pyran-2-yl}methyl)-1H-pyrazole-4-carboxamide], the values for the IC50 at Human HERG and at NR2B receptor were 99400 nM and 7.8 nM, respectively.
On to `O=C(NC[C@H]1CC[C@@H](COc2ccc(Cl)cc2)CO1)c1cn[nH]c1` [Example 120, N-({(2R,5R)-5-[(4-Chlorophenoxy)methyl]tetrahydro-2H-pyran-2-yl}methyl)-1H-pyrazole-4-carboxamide], for which the figures for the IC50 at Human HERG and on NR2B receptor were greater than 30000 nM and 12.2 nM, respectively.
With `Cc1ccc(OC[C@@H]2CC[C@H](CNC(=O)c3cn[nH]c3)OC2)cc1` [Example 123, N-({(2R,5R)-5-[(4-Methylphenoxy)methyl]tetrahydro-2H-pyran-2-yl}methyl)-1H-pyrazole-4-carboxamide], the IC50 on Human HERG is greater than 100000 nM; on NR2B receptor, 7.1 nM.
With `Nc1n[nH]cc1C(=O)NC[C@H]1CC[C@@H](COc2ccc(Cl)cc2)CO1` [Example 125, 3-Amino-N-({(2R,5R)-5-[(4-chlorophenoxy)methyl]tetrahydro-2H-pyran-2-yl}methyl)-1H-pyrazole-4-carboxamide], the IC50 at Human HERG is greater than 30000 nM; on NR2B receptor, 12.5 nM.
The matching figures for `O=C(NC[C@H]1CC[C@@H](COc2ccc(Cl)cc2)CO1)c1cc(F)c(O)c(F)c1` [Example 126, N-({(2R,5R)-5-[(4-Chlorophenoxy)methyl]tetrahydro-2H-pyran-2-yl}methyl)-3,5-difluoro-4-hydroxybenzamide]: greater than 100000 nM and 18.1 nM.
Consider `O=C(NC[C@H]1CC[C@@H](COc2ccc(Cl)c(F)c2)CO1)c1cn[nH]c1` [Example 129, N-({(2R,5R)-5-[(4-Chloro-3-fluorophenoxy)methyl]tetrahydro-2H-pyran-2-yl}methyl)-1H-pyrazole-4-carboxamide], for which the IC50 on Human HERG is greater than 30000 nM; at NR2B receptor it was 10.3 nM.
